Assay results reported in patent US5264430A, “2-spirocyclopropyl cephalosporin sulfone derivatives” (SynPhar Laboratories, Inc., priority 1991, dated 1993).

Columns and labels:
cathepsin G = biological target: T1, cathepsin G (Homo sapiens, UniProt P08311); assay: Selectivity against various proteases: cathepsin G (CTG); assay type: biochemical; conditions: cathepsin G 50 nM, human white blood cells, pH 7.5, 30° C., 10 minute preincubation
T1 construct: Purified Cathepsin G from human white blood cells; from tissue; host or cells: human white blood cells
T1 sequence (P08311 21-244 limits assumed): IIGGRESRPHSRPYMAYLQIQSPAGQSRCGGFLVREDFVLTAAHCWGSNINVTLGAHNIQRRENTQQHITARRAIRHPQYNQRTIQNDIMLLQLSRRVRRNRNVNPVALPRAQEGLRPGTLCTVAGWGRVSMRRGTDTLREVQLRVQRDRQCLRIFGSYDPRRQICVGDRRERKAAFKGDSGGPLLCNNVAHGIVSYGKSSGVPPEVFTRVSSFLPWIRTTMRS
Method: Reaction mixture: […] 500 mM NaCl […] 2.0 mM Substrate Except for Cathepsin D, the enzyme activities were determined by monitoring the increase in absorbance at 410 nm caused by the hydrolysis of chromogenic substrates. The activity of Cathepsin D was determined by monitoring the absorbance of 5% trichloroacetic acid-soluble material at 280 nm. Inhibition of enzymes by the compounds described were determined after a 10 minute preincubation with enzymes in reaction mixtures minus substrate. Reactions were initiated by the addition of substrates. The concentration used for assays were porcine pancreatic elastase at 240 nM and human Cathepsin G at 50 nM. Cathepsin D was used at the concentration that produced approximately 0.15 O.D. increase per 20 min at 280 nm under the standard conditions. All other proteases were assayed at the concentrations that produced approximately 0.1 O.D. change per minute at 410 nm under the standard conditions.

[1] = biological target: T2, human leukocyte elastase (HLE) (Homo sapiens, UniProt P08246); assay: Enzyme assay for inhibition of HLE (Table I, activity against ILE); assay type: biochemical; conditions: HLE 10 nM, 10 minute preincubation, pH 7.6, 30° C.
T2 construct: Purified elastase from human white blood cells; from tissue; host or cells: human white blood cells
T2 sequence (P08246 30-247 limits assumed): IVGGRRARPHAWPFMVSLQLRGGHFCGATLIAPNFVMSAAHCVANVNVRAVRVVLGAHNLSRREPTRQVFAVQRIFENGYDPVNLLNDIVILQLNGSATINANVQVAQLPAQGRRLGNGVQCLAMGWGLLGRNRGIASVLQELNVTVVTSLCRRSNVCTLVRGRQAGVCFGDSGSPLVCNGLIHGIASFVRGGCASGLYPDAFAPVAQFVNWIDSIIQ
Method: Enzyme Assay for Inhibition of HLE
Enzyme: Purified elastase from human white blood cells.
MeO-succinyl-L-alanyl-L-alanyl-L-propyl-L-valine-p-nitroanilide (NA)
10 mM phosphate buffer (pH 7.6)
10% dimethylsulfoxide (DMSO)
The enzyme activity was determined by monitoring the increase in absorbance at […] caused by the hydrolysis of chromogenic substrates. Inhibition of enzyme by the compounds described were determined after a 10 minute preincubation with the enzyme in reaction mixture minus substrate. Reaction was initiated by the addition of substrate. The concentration of human leukocyte elastase used for assay was at 10 nM.
HLE, CTG, PPE, and CTD were tested at 30° C. and the others were […]

CC1=C(C(=O)OC(c2ccccc2)c2ccccc2)N2C(=O)[C@H](Br)[C@H]2S(=O)(=O)C12CC2(c1ccccc1)c1ccccc1 (single isomer, unassigned) [Example 2, benzhydryl 7α-bromo-2-spiro(2', 2'-diphenyl) cyclopropyl-3-methyl-3-cephem-4-carboxylate-1,1-dioxide]
IC50 (cathepsin G): 16.2 µM | IC50 [1]: 0.00336 µM
